# Experimental data: patent publication US20240269214A1, “SUBSTANCE HAVING HIGH ACTIVITY AND HIGH SAFETY, PREPARATION METHOD THEREFOR, AND APPLICATION THEREOF IN DRUG” (priority 2021, published 2024)
# Legend:
# [1] = tested on: male Japanese white rabbits; test: Inhibition of formation of atherosclerosis in rabbits on high-fat diet (percentage of aortic plaque area); type: in vivo; details: high-fat diet 6 weeks, oils 1.5 g/kg/d, simvastatin 2.0 mg/kg/d, PC group 42.6±9.7%
# Excerpt: High fat fortified feed: Each rabbit is fed with 0.5 grams of cholesterol, 2.0 grams of lard, and 20 grams of egg yolk daily.
# Feed for 6 weeks according to the above grouping and feeding conditions, and then execute the animals. After the animals are killed, the aorta is removed from the aortic valve orifice to the beginning of the common iliac artery, the aortic wall is cut longitudinally along the midline of the abdomen, fixed with 10% formaldehyde solution, and the distribution map of aortic lesions is drawn according to the aorta. The area of atherosclerotic plaque and the total area of aortic expansion are measured, and the percentage of plaque area is calculated.
# [2] = tested on: male Japanese white rabbits; test: Reversing and ablating atherosclerosis in rabbits with established atherosclerosis model (percentage of aortic plaque area); type: in vivo; details: 6 weeks modelling then 3 months treatment, oils 1.5 g/kg/d, simvastatin 2.0 mg/kg/d, MOD 45.8±9.9%, MBF 59.9±8.9%
# Excerpt: Forty-eight 4-month-old male Japanese white rabbits weighing 2.0±0.2 kg were selected and randomly divided into 2 groups, as follows: • Normal diet group (Negative control group, NC): 8 male Japanese white rabbits, fed with basic feed; • Atherosclerosis modeling group (MOD): 40 male Japanese white rabbits, fed with high fat fortified basic diet, and the dose of peanut oil was 1.5 g/kg/d (converted based on adult and animal weight, body surface area and Km factor);
# The area of atherosclerotic plaque and the total area of aortic expansion is measured, and the percentage of plaque area is calculated.
# Three months later, all animals are euthanized.
# After the animals are killed, the aorta is removed from the aortic valve orifice to the beginning of the common iliac artery, the aortic wall is cut longitudinally along the midline of the abdomen, fixed with 10% formaldehyde solution, and the distribution map of aortic lesions is drawn according to the aorta. The area of atherosclerotic plaque and the total area of aortic expansion is measured, and the percentage of plaque area is calculated.
smiles,measurement,setting,value
CCC(C)(C)C(=O)O[C@H]1C[C@@H](C)C=C2C=C[C@H](C)[C@H](CC[C@@H]3C[C@@H](O)CC(=O)O3)[C@H]21 [simvastatin],Plaque area (percentage of atherosclerotic plaque in aortic area),[1],20.2±4.2%
same,Plaque area (percentage of atherosclerotic plaque in aortic area),[2],47.1±8.3%
